Measured values published in PMC10590383, “Repurposing conformational changes in ANL superfamily enzymes to rapidly generate biosensors for organic and amino acids” (Nature Communications, 2023).

Target: T1, GECFINDER-Phe3 (Aneurinibacillus migulanus, UniProt P0C061)
T1 construct: gene grsA; GrsA-PheA-PCP; cpEGFP inserted in hinge B, linkers VF-QS
T1 sequence (P0C061 1-617): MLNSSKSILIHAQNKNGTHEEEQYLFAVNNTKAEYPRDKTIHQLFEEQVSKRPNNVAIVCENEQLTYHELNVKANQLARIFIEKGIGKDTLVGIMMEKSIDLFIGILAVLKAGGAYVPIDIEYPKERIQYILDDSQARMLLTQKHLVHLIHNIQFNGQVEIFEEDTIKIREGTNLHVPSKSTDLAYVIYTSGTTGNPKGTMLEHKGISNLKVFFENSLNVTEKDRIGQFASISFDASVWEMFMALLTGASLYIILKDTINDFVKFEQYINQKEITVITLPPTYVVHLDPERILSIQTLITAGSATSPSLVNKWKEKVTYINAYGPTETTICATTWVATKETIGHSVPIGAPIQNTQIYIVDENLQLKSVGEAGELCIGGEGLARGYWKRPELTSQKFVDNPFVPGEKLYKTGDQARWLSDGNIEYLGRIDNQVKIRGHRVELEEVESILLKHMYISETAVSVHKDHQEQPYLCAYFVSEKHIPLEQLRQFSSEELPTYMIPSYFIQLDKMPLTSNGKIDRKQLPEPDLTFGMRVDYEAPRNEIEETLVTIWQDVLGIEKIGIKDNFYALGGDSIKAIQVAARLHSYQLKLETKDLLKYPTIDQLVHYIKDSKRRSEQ
Assay: Fluorescence dose-response of purified […]-Phe3 with phenylalanine in 100 mM Tris at pH 6.5, room temperature, 1 mM ATP, 2.5 mM MgCl2.
Type: biochemical
Details: n = 3
From the text: As cpEGFP is sensitive to pH, we conducted a dose-response curve and fluorescence intensity analysis of […]-Phe3 at varying pH levels. […] In addition, we expanded the range of ligand-binding domains (LBDs) applicable to […] and attempted optimization of insertion sites for cpEGFP with limited success. Please refer to Supplemental Note 1 for detailed information.
The study conducted dose–response curve, substrate specificity, and fluorescent spectrum analyses in 100-mM Tris buffer (pH = 7.5), while pH stability experiments were performed in 100-mM Tris buffer at three different pH values (6.5, 7.5, and 8.5) at room temperature. […] Fluorescent signals were detected using a Microplate Reader (Synergy H4, Bio Tek) at an excitation/emission wavelength of 460 nm/510 nm or 480 nm/510 nm. The dose-response curve was determined immediately after the addition of the analyte. The total duration of the measurement was 15 min, with readings taken at one-minute intervals. The dose-response curve was plotted using the fluorescence values obtained after achieving stability in the fluorescence signal. […] The thermal stability of […] was analyzed using the UNcle multifunctional protein stability analysis system. […] Absolute fluorescence quantum yields were measured using an absolute photoluminescence quantum yield spectrometer (FS5, Edinburgh). […]

N[C@@H](Cc1ccccc1)C(=O)O [Phe, phenylalanine]
EC50: 2030 nM
